These results are taken from patent US7749983B2, “Metabolically stable alkoxyalkyl esters of antiviral or antiproliferative phosphonates, nucleoside phosphonates and nucleoside phosphates” (priority 2006, dated 2010).

Several values for one entry are separate records, joined by “and”; a condition that tells them apart may be missing. Equal entries are not always repeated. Where two headings read alike, the source gives them in different places.

For orientation: EC50 means the concentration giving half of the maximal effect.

In data set [1] the test system is ectromelia virus (ECTV). Further details: species or system A/Ncr mice. The conditions noted are these: mouse, in vivo; for MDD, Mean day of death / Mortality: po.
In data set [2] the test system is cowpox virus, strain Brighton. The experiment in a line: microbe, parasite or virus in culture. It counts as cell-based. As to conditions: for EC50: read-out: Cowpox Brighton EC50.
The subject of data set [3] is vaccinia virus strain, Copenhagen. Briefly: microbe, parasite or virus in culture. It counts as cell-based. The conditions noted are these: for EC50: read-out: Vaccinia Copenhagen EC50.
Data set [4] relates to HFF cells. The experiment in a line: Neutral-red uptake assay for toxicity. As to conditions: 7 days.
Data set [5] concerns Ectromelia Virus (ECTV, MOS strain). The experiment in a line: microbe, parasite or virus in culture. Type of data set: cell-based.
Data set [6] in a line: Neutral-red uptake assay for toxicity. The conditions noted are these: human, HFF cells.
Data set [7] is described as follows: Metabolic stability testing with human liver S9 fractions. The conditions noted are these: FIG. 3; 37° C., protein 3 mg/mL, compound 1 μM.
Data set [8] can be described thus: Metabolic stability testing with monkey liver S9 fractions. As to conditions: FIG. 3; 37° C., protein 3 mg/mL, compound 1 μM.
Data set [9] in a line: in vitro.
The mark [10] stands for this setting: read-out: Ectromelia Virus EC50.

In the case of “14-methyl-pentadecyloxypropyl cidofovir [Compound 14M-PDP-CDV]”, the “MDD, Mean day of death” value in data set [1] (2.5 mg/kg) was found to be 14. Besides, the Mortality in data set [1] (2.5 mg/kg) was 1/5; in [1] (5 mg/kg) it was 0/5; in data set [1] (10 mg/kg), 0/5. Further, the concentration for a half-maximal effect (EC50) in [2] was 130 nM; in data set [3], 140 nM; in [5] (setting [10]), 170 nM. In data set [4] (Table 3, neutral-red uptake), this compound came in with a CC50 of 18000 ± 1100 nM.

Take “17-methyl-octadecyloxyethyl cidofovir [Compound 17M-ODE-CDV]”: the EC50 stood at 50 nM in [2], 32 nM in [3] and 80 nM in [5] (setting [10]). In data set [4] (Table 3, neutral-red uptake), this compound came in with a CC50 of 15000 ± 4000 nM.

In the case of `CC(C)CCCCCCCCCCCCCCOCCOP(=O)(O)CO[C@H](CO)Cn1cnc2c(N)ncnc21` [15M-HDE-HPMPA, 3-(15-methylhexadceyloxy)ethyl (S)-HPMPA], the EC50 in data set [5] (setting [10]) amounted to 12 nM.

For `CC(C)CCCCCCCCCCCCCCOCCCOP(=O)(O)CO[C@H](CO)Cn1cnc2c(N)ncnc21` [15M-HDP-(S)-HPMPA, 3-(15-methylhexadecyloxy)propyl (S)-HPMPA], the “activity relative to HDP-(S)-HPMPA in lethal ectromelia infection” value in data set [1] is listed as “more active than HDP-(S)-HPMPA”. Also, in data set [1] (2.5 mg/kg), the “MDD, Mean day of death” value is listed as 14.3. For the same compound, the Mortality in [1] (2.5 mg/kg) is 3/5; in [1] (5 mg/kg), 0/5; in [1] (10 mg/kg), 0/5. Moreover, the EC50 in data set [2] stood at 52 nM; in data set [3], 12 nM. The compound also displayed a CC50 in data set [4] (Table 4, neutral-red uptake) of 27500 nM.

Turning to `CC(C)CCCCCCCCCCCCCCCCOCCOP(=O)(O)CO[C@H](CO)Cn1cnc2c(N)ncnc21` [17M-ODE-(S)-HPMPA, 2-(17-methyloctadecyloxy)ethyl (S)-HPMPA], the values for the EC50 in data set [2] and in [3] were 11 nM and 9 nM, respectively. The compound further registered a CC50 in data set [4] (Table 4, neutral-red uptake) of 800 nM.

As for `Nc1ccn(C[C@@H](CO)OCP(=O)(O)O)c(=O)n1` [CDV, cidofovir], the “Cowpox Brighton SI (Selectivity Index) = CC50/EC50” value in [2] is >10 and >8.3. In addition, the EC50 in data set [2] (Cowpox virus, HFF) amounted to 31000 ± 1700 nM; in data set [2] it was 38100 nM; in [3] (Orthopoxvirus vaccinia, HFF), 19000 ± 9900 nM; in data set [3], 19400 nM. For the same compound, the “Vaccinia Copenhagen SI (Selectivity Index) = CC50/EC50” value in data set [3] is >17 and >16. Further, in data set [6], the CC50 at 7 days is > 317000 nM. Further, the CC50 in data set [4] (Table 4, neutral-red uptake) was > 317000 nM.

Turning to `CC(C)CCCCCCCCCCCOCCCOP(=O)(O)CO[C@H](CO)Cn1ccc(N)nc1=O` [Compound 12M-TrDP-CDV, 12-methyl-tridecyloxypropyl cidofovir], the half-maximal effective concentration (EC50) in data set [2] was 900 nM; in data set [3] it was 700 nM; in data set [5] (setting [10]) it was 940 nM. In addition, the CC50 in data set [4] (Table 3, neutral-red uptake) was 44000 ± 5400 nM.

As for `CC(C)CCCCCCCCCCCCOCCCOP(=O)(O)CO[C@H](CO)Cn1ccc(N)nc1=O` [Compound 13M-TDP-CDV, 13-methyl-tetradecyloxypropyl cidofovir], the “MDD, Mean day of death” value in [1] (2.5 mg/kg) was determined as 9.3. Also, the Mortality is given as 4/5 in data set [1] (2.5 mg/kg), 0/5 in data set [1] (5 mg/kg) and 0/5 in data set [1] (10 mg/kg). The figures for the EC50 in data set [2], in data set [3] and in data set [5] (setting [10]) were 200 nM, 130 nM and 400 nM, respectively. Also, the CC50 in data set [4] (Table 3, neutral-red uptake) is 41000 ± 2000 nM.

Regarding `CC(C)CCCCCCCCCCCCCCOCCCOP(=O)(O)CO[C@H](CO)Cn1ccc(N)nc1=O` [Compound 15M-HDP-CDV, 15-methyl-hexadecyloxypropyl cidofovir], the EC50 in [2] stood at 340 nM; in data set [3] it was 100 nM; in [5] (setting [10]), 40 nM. The “degradation by human liver S9 fractions (% of drug remaining versus time), relative to HDP-CDV” value in data set [7] is listed as “markedly slower”. Also, in [4] (Table 3, neutral-red uptake), the CC50 was 15200 ± 5500 nM. Also, the “degradation by monkey liver S9 fractions (% of drug remaining versus time), relative to HDP-CDV” value in data set [8] is listed as “markedly slower”.

Consider `CCCCCCCCCCCCCCCCOCCOP(=O)(O)COC(CO)Cn1cnc2c(N)ncnc21` (stereo not shown) [HDE-HPMPA, reference compound], for which the half-maximal effective concentration (EC50) in data set [5] (setting [10]) worked out at 50 nM.

As to `CCCCCCCCCCCCCCCCOCCCOP(=O)(O)CO[C@H](CO)Cn1cnc2c(N)ncnc21` [HDP-(S)-HPMPA, reference compound], the “MDD, Mean day of death” value in data set [1] (2.5 mg/kg) is on record as 9.4; in data set [1] (5 mg/kg), 11. For the same compound, the Mortality was 5/5 in data set [1] (2.5 mg/kg), 1/5 in [1] (5 mg/kg) and 0/5 in data set [1] (10 mg/kg). In addition, the EC50 came out at 18 nM in data set [2] and 10 nM in data set [3]. This compound also displayed a CC50 in data set [4] (Table 4, neutral-red uptake) of 31800 nM.

In the case of `CCCCCCCCCCCCCCCCOCCCOP(=O)(O)CO[C@H](CO)Cn1ccc(N)nc1=O` [HDP-CDV, hexadecyloxypropyl-CDV, reference compound], the “MDD, Mean day of death” value in [1] (2.5 mg/kg) amounted to 13. The figures for the Mortality in data set [1] (2.5 mg/kg), in [1] (5 mg/kg) and in [1] (10 mg/kg) were 2/5, 0/5 and 0/5, respectively. Also, in [2], the “Cowpox Brighton SI (Selectivity Index) = CC50/EC50” value is recorded as 470. In addition, the EC50 in data set [2] (Cowpox virus, HFF) was 200 nM; in data set [3] (Orthopoxvirus vaccinia, HFF), 200 nM; in data set [5] (Ectromelia virus, CV-1, read-out: Ectromelia Virus EC50), 140 nM. Moreover, in [3], the “Vaccinia Copenhagen SI (Selectivity Index) = CC50/EC50” value is given as 470. This compound returned a CC50 at 7 days in data set [6] of 94000 nM. In [9], this compound returned a CC50 of 10000 nM.

As for `CCCCCCCCCCCCCCCCCCOCCOP(=O)(O)CO[C@H](CO)Cn1cnc2c(N)ncnc21` [ODE-(S)-HPMPA], the EC50 amounted to 12 nM in [2] and 8 nM in [3]. Besides, in data set [4] (Table 4, neutral-red uptake), the CC50 was 2100 nM.
